The text below walks through data of paper PMC9346113, “Therapeutic impact of BET inhibitor BI 894999 treatment: backtranslation from the clinic” (British Journal of Cancer, 2022).

Experiment [1] has as its system human solid and haematological cancer lines as well as primary patient-derived AML samples. As to conditions: cited from earlier work.
In experiment [2] the test system is Ki67. The experiment in a line: IHC of 10326 xenograft tumours, Ki67. In kind it is in vivo, mice. As to conditions: day 21, BI 894999 monotherapy 2 mg/kg. As to the method: Immunohistochemistry was performed on formalin-fixed, paraffin-embedded tumour tissue using antibodies against human Ki67(Cell Signaling #9027, 1:400 dilution), anti-human mitochondria (Abcam ab92824, 1:1000 dilution) and against endogenous NUT protein (Cell Signaling #3625, 1:50 dilution) used to detect NUT fusion proteins. Digital images of whole tissue sections were acquired using a Leica SCN400 histology scanner (Leica Microsystems). Ki67-positive index was evaluated using Halo Software V. 3.2 (Indica lab). Regions of interest (ROIs) within the tissue sections were first identified using Halo Software via machine learning technology across pathological samples and tissue control, within these ROIs, nuclei were detected and classified as positive or negative based on IHC staining thresholds.
Quantification of Ki67 staining in NC 10326 tumor sections after treatment with BI 894999, CCS1477, or the combination thereof.

Consider `CNc1nc(-c2nc3ccc(N4CCN(C)CC4)cc3n2Cc2ccccc2)cn2c(C)nnc12` [BI 894999], for which the GI50 values result in experiment [1] (AML cell lines) was “single-digit nM range”. Moreover, the “fold more potent compared to other BET inhibitors (GSK525762, OTX015, JQ1)” value in experiment [1] (cellular potency in large panels) is given as “at least 10 fold”. For the same compound, in experiment [2], the “cell proliferation as assessed by Ki67 levels” value is “reduced cell proliferation”.
